Biological target: wild-type human cardiac sodium channel, hNav1.5 (Homo sapiens, UniProt Q14524)
Experiment: Late INa screening assay (late sodium current, PatchXpress whole cell patch clamp)
Format: cell-based
Conditions: compound at 10 μM; read-out: Late INa % blk

wild-type human cardiac sodium channel, hNav1.5, sequence (Q14524 whole entry): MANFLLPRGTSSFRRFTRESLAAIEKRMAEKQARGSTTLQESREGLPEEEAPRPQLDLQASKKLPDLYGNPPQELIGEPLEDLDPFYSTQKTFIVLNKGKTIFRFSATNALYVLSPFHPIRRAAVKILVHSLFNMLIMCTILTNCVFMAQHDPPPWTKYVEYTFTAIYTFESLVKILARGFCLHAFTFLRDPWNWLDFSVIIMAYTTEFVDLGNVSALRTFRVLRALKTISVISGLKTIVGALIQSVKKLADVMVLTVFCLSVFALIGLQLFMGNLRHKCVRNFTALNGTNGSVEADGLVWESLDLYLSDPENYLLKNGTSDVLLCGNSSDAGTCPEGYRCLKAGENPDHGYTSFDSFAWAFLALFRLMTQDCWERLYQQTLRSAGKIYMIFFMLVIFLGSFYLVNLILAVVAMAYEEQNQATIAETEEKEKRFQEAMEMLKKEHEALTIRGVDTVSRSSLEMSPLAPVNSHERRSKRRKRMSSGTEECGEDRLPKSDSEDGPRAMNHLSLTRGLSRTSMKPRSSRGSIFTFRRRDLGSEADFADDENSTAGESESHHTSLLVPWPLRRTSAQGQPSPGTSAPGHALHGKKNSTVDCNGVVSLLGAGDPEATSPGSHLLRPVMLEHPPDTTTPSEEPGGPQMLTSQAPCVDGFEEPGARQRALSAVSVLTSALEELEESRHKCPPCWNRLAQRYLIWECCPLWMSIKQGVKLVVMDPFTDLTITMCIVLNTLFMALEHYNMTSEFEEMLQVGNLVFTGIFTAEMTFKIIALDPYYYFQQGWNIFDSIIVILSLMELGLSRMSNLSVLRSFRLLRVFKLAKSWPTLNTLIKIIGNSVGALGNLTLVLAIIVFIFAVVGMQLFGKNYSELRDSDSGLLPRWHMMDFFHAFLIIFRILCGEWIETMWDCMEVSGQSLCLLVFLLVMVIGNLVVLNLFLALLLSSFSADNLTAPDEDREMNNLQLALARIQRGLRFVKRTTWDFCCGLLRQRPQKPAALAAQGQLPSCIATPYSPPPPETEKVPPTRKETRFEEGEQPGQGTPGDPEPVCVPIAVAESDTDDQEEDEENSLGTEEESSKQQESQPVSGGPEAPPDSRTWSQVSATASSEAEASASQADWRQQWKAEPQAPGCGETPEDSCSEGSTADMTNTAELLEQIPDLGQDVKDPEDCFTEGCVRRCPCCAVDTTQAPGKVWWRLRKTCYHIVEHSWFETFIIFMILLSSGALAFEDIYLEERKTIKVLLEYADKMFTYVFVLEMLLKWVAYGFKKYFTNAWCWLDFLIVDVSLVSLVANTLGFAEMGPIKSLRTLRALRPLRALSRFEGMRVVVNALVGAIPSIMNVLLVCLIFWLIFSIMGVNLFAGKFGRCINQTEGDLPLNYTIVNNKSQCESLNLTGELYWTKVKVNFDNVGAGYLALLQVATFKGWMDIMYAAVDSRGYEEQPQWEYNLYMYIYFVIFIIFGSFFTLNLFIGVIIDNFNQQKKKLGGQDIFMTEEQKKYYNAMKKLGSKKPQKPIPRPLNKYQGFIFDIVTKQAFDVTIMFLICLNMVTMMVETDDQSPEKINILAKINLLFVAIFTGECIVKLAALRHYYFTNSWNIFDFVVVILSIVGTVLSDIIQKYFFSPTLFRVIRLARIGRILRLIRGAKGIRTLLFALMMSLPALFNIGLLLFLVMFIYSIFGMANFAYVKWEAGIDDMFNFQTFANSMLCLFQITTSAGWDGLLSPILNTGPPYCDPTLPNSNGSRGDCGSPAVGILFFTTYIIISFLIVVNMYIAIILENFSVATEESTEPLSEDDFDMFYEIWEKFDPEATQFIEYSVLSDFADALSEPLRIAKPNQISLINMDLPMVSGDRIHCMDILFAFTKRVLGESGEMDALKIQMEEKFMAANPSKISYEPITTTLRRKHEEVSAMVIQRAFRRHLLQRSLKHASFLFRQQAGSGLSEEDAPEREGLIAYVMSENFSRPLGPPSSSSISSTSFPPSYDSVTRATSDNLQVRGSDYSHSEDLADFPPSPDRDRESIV

Row | Compound | inhibition at 10 µM [%]
1 | CC1=C(C(=O)OCc2ccccc2)C(c2ccccc2-c2ccc([N+](=O)[O-])cc2)n2nnnc2N1 (stereo not drawn) [PT-361, benzyl 5-methyl-7-(4′-nitrobiphenyl-2-yl)-4,7-dihydrotetrazolo[1,5-a]pyrimidine-6-carboxylate] | 41
2 | COc1cccc(-c2ccccc2[C@@H]2C(C(=O)OCc3ccccc3)=C(C)Nc3nnnn32)c1 [PT-241, (R)-benzyl 7-(3′-methoxybiphenyl-2-yl)-5-methyl-4,7-dihydrotetrazolo[1,5-a]pyrimidine-6-carboxylate] | 77.1
3 | COC(=O)C1=C(C)Nc2cc(C)nn2C1c1cccc2ccccc12 (stereo not drawn) [PT-508, methyl 2,5-dimethyl-7-(naphthalen-1-yl)-4,7-dihydropyrazolo[1,5-a]pyrimidine-6-carboxylate] | 11.6
4 | CC1=C(C(=O)OCc2ccccc2)C(c2ccc(B(O)O)cc2)n2nnnc2N1 (stereo not drawn) [PT-300, 4-(6-(benzyloxycarbonyl)-5-methyl-4,7-dihydrotetrazolo[1,5-a]pyrimidin-7-yl)phenylboronic acid] | 14.4
5 | CC1=C(C(=O)OCc2ccc(-n3cccn3)cc2)C(c2cccc3ccccc23)n2nnnc2N1 (stereo not drawn) [PT-289, 4-(1H-pyrazol-1-yl)benzyl 5-methyl-7-(naphthalen-1-yl)-4,7-dihydrotetrazolo[1,5-a]pyrimidine-6-carboxylate] | 3.3
6 | CC1=C(C(=O)N2CCC(c3cccc(C(=O)O)c3)CC2)C(c2cccc3ccccc23)C2=C(CCCC2=O)N1 (stereo not drawn) [PT-172, 3-(1-(2-methyl-4-(naphthalen-1-yl)-5-oxo-1,4,5,6,7,8-hexahydroquinoline-3-carbonyl)piperidin-4-yl)benzoic acid] | 16.3
7 | CCOC(=O)C1=C(C)NC(C)=C(C(=O)OCC)C1c1ccccc1-c1cccc(C#N)c1 [PT-435, diethyl 4-(3′-cyanobiphenyl-2-yl)-2,6-dimethyl-1,4-dihydropyridine-3,5-dicarboxylate] | 19.4
8 | CC1=C(C(=O)OCc2ccccc2)C(c2ccc(S(C)(=O)=O)cc2)n2nnnc2N1 (stereo not drawn) [PT-355, benzyl 5-methyl-7-(4-(methylsulfonyl)phenyl)-4,7-dihydrotetrazolo[1,5-a]pyrimidine-6-carboxylate] | 14.8
9 | CCOC(=O)C1=C(C)NC2=C(C(=O)CCC2)C1c1c(OC)ccc2ccccc12 (stereo not drawn) [PT-134, ethyl 4-(2-methoxynaphthalen-1-yl)-2-methyl-5-oxo-1,4,5,6,7,8-hexahydroquinoline-3-carboxylate] | 15.5
10 | CCOC(=O)CN1C(C)=C(C(=O)OCC)C(c2cccc3ccccc23)n2nnnc21 (stereo not drawn) [PT-449, ethyl 4-(2-ethoxy-2-oxoethyl)-5-methyl-7-(naphthalen-1-yl)-4,7-dihydrotetrazolo[1,5-a]pyrimidine-6-carboxylate] | 47.6
11 | O=C1OCC2=C1C(c1cccc3ccccc13)c1cn[nH]c1N2 (stereo not drawn) [PT-084, 4-(naphthalen-1-yl)-7,8-dihydro-1H-furo[3,4-e]pyrazolo[3,4-b]pyridin-5(4H)-one] | 16.9
12 | CCOC(=O)C1=C(C)Nc2[nH]ncc2C1c1c(OC)cccc1OC (stereo not drawn) [PT-446, ethyl 4-(2,6-dimethoxyphenyl)-6-methyl-4,7-dihydro-1H-pyrazolo[3,4-b]pyridine-5-carboxylate] | 7
13 | CC1=C(C(=O)OCc2ccccc2)[C@@H](c2ccccc2-c2ccc(C(N)=O)cc2)n2nnnc2N1 [PT-242, (R)-benzyl 7-(4′-carbamoylbiphenyl-2-yl)-5-methyl-4,7-dihydrotetrazolo[1,5-a]pyrimidine-6-carboxylate] | 11
14 | CC1=C(C(=O)NNC(=O)Cc2ccccc2)C(c2cccc3ccccc23)C2=C(CCCC2=O)N1 (stereo not drawn) [PT-266, 2-methyl-4-(naphthalen-1-yl)-5-oxo-N′-(2-phenylacetyl)-1,4,5,6,7,8-hexahydroquinoline-3-carbohydrazide] | 8.8
15 | CCOC(=O)C1=C(C)Nc2nnnn2C1c1sccc1-c1ccc(C(=O)O)cc1 (stereo not drawn) [PT-292, 4-(2-(6-(ethoxycarbonyl)-5-methyl-4,7-dihydrotetrazolo[1,5-a]pyrimidin-7-yl)thiophen-3-yl)benzoic acid] | 18.7
16 | CC1=C(C(=O)OCc2ccccc2)C(c2ccccc2)C2=C(CCCC2=O)N1 (stereo not drawn) [PT-323, benzyl 2-methyl-5-oxo-4-phenyl-1,4,5,6,7,8-hexahydroquinoline-3-carboxylate] | 48.9
17 | CC1=C(C(=O)OCc2ccccc2)C(c2ccccc2-c2ccc(N3CCOCC3)cc2)n2nnnc2N1 (stereo not drawn) [PT-360, benzyl 5-methyl-7-(4′-morpholinobiphenyl-2-yl)-4,7-dihydrotetrazolo[1,5-a]pyrimidine-6-carboxylate] | 7.2
18 | CCOC(=O)C1=C(C)NC(C)=C(C(=O)OCC)C1c1cccc(-c2ccccc2)c1 [PT-439, diethyl 4-(biphenyl-3-yl)-2,6-dimethyl-1,4-dihydropyridine-3,5-dicarboxylate] | 56.1
19 | COC(=O)C1=C(C)Nc2[nH]ncc2C1c1sc(Cl)nc1Cl (stereo not drawn) [PT-510, methyl 4-(2,4-dichlorothiazol-5-yl)-6-methyl-4,7-dihydro-1H-pyrazolo[3,4-b]pyridine-5-carboxylate] | 19.9
20 | CC1=C(C(=O)OCc2ccccc2)C(c2cc(Br)ccc2OCc2ccccc2)n2nnnc2N1 (stereo not drawn) [PT-381, benzyl 7-(2-(benzyloxy)-5-bromophenyl)-5-methyl-4,7-dihydrotetrazolo[1,5-a]pyrimidine-6-carboxylate] | 43.7
21 | COc1ccc2c(C3C(C(=O)OCc4ccccc4)=C(C)Nc4nnnn43)ccc(OC)c2c1 (stereo not drawn) [PT-033, benzyl 7-(4,6-dimethoxynaphthalen-1-yl)-5-methyl-4,7-dihydrotetrazolo[1,5-a]pyrimidine-6-carboxylate] | 23.3
22 | CCOC(=O)C1=C(CC)NC2=C(C(=O)CCC2)C1c1ccc(OC)c2ccccc12 (stereo not drawn) [PT-136, ethyl 2-ethyl-4-(4-methoxynaphthalen-1-yl)-5-oxo-1,4,5,6,7,8-hexahydroquinoline-3-carboxylate] | 45.2
23 | CC1=C(C(=O)NNC(=O)c2ccccc2)C(c2cccc3ccccc23)n2nnnc2N1 (stereo not drawn) [PT-069, N′-benzoyl-5-methyl-7-(naphthalen-1-yl)-4,7-dihydrotetrazolo[1,5-a]pyrimidine-6-carbohydrazide] | 11.5
24 | CC1=C(C(=O)OCc2ccccc2)C(c2cccc3ccccc23)c2cn[nH]c2N1 (stereo not drawn) [PT-367, benzyl 6-methyl-4-(naphthalen-1-yl)-4,7-dihydro-1H-pyrazolo[3,4-b]pyridine-5-carboxylate] | 16.1
25 | CCOC(=O)c1c(C)nc2[nH]ncc2c1-c1cccc2ccccc12 [PT-472, ethyl 6-methyl-4-(naphthalen-1-yl)-1H-pyrazolo[3,4-b]pyridine-5-carboxylate] | 22.6
26 | COC(=O)C1=C(C)Nc2nnnn2C1c1c(Br)sc2ccc(Cl)cc12 (stereo not drawn) [PT-517, methyl 7-(2-bromo-5-chlorobenzo[b]thiophen-3-yl)-5-methyl-4,7-dihydrotetrazolo[1,5-a]pyrimidine-6-carboxylate] | 43.3
27 | CC1=C(C(=O)OCc2ccccc2)C(c2cc(-c3ccsc3)cs2)n2nnnc2N1 (stereo not drawn) [PT-398, benzyl 7-(3,3′-bithiophen-5-yl)-5-methyl-4,7-dihydrotetrazolo[1,5-a]pyrimidine-6-carboxylate] | 18.3
